Consider four compounds from US12558368B2, “Compositions and devices for systemic delivery of uridine” (PHARMA CINQ, LLC, priority 2018, dated 2026).

Data set [1] relates to mortality caused by 3-nitropropionic acid (inhibitor of Complex II of the mitochondrial respiratory chain). Description: Protection against mortality caused by 3-nitropropionic acid (Example 2; uridine, Na(DL-BHB), Na(D-BHB)). It is filed as in vivo, Female CD-1 mice. To be noted: 3-NP 60 mg/kg/day i.p., s.c. uridine 200 mg/kg t.i.d. and/or Na(DL-BHB) or Na(D-BHB) 328 mg/kg t.i.d.; for Median Survival: 12 day study; for % Survival: end of 12 day study, 10 mice per group. As for the experimental part:
Mitochondrial dysfunction was produced by daily administration of 3-nitropropionic acid (60 mg/kg/day) by intraperitoneal injection. Groups of mice also received saline (control), uridine, DL-BHB, D-BHB, and combinations of uridine and D-BHB and DL-BHB as indicated below. Both D- and DL-BHB were administered as the water soluble sodium salts: Na(D-BHB) (Toronto Research Chemicals, catalog #H833025) and Na(DL-BHB) (VWR International, catalog #200012-200).
• 1. Vehicle Control—0.9% saline b.i.d. • 2. Uridine 200 mg/kg t.i.d. • 3. Na (DL-BHB) 328 mg/kg t.i.d. • 4. Na (D-BHB) 328 mg/kg t.i.d. • 5. Uridine 200 mg/kg+Na (DL-BHB) 328 mg/kg t.i.d. • 6. Uridine 200 mg/kg+Na (D-BHB) 328 mg/kg t.i.d.
Survival times (median survival; the time point at which 50% of animals in a group had died) and percent survival at the end of the 12 day study were used to quantify and compare protective effects of the test agents.
Female CD-1 mice at approximately 16 weeks of age were divided into weight-matched groups of 10 mice each. All mice received daily intraperitoneal injections of 3-NP (60 mg/kg) in a volume of 0.01 ml per gram of body weight at 5 PM.
The therapeutic treatments were administered by subcutaneous injection in a volume of 0.01 ml/gram of body weight three times per day, at 7 AM and 12 PM and 4 PM. 3-NP was administered at 5 PM on each of the consecutive days of the experiment. Body weights were recorded each day to adjust drug doses as mice lost weight during repeated treatment with 3-NP. Body weight was graphed for the various groups of mice until the group size decreased below 3.

A short description of data set [2]: Pharmacokinetics of plasma uridine and D-BHB after subcutaneous administration. It is filed as in vivo, Female CD-1 mice. To be noted: mice. The procedure:
Groups of 8 mice (Female CD-1 mice, approximately 16 weeks old) were treated with subcutaneous uridine or uridine plus Na(D-BHB) as indicated in the table below. D-BHB was administered as the water soluble sodium salt Na(D-BHB) (Toronto Research Chemicals, catalog #H833025
• 1. Group 1 (200 mg/kg Uridine+Na(D-BHB) received 10 mg/ml uridine and 49.26 mg/ml Na(D-BHB) (0.02 ml/g bw). • 2. Group 2 (300 mg/kg Uridine+Na(D-BHB) received 15 mg/ml uridine and 49.26 mg/ml Na(D-BHB) (0.02 ml/g bw). • 3. Group 3 (400 mg/kg Uridine+Na(D-BHB) received 20 mg/ml uridine and 49.26 mg/ml Na(D-BHB) (0.02 ml/g bw). • 4. Group 4 (400 mg/kg Uridine) received 20 mg/ml uridine (0.02 ml/g bw).
Blood samples were obtained from the retro-orbital plexus at time points of 15, 30, 60 and 120 minutes after drug injection. Two blood samples (<200 microliters) were collected from each mouse into heparinized polyethylene tubes, with 4 mice bled at 15 and 60 minutes, and the other 4 mice in a group were bled at 30 and 120 minutes. Plasma samples were obtained by centrifugation, and were deproteinized and analyzed for uridine and uracil by an LC/MS method. Plasma D-BHB was measured in the same samples by a commercial enzymatic color-change assay.
Rodents degrade uridine to uracil more rapidly and extensively than do humans, who have lower activities of the enzyme uridine phosphorylase. Therefore, it is important to take into account plasma uracil concentrations in rodents for optimum translation of rodent pharmacokinetic results to the human situation. The sum of uridine+uracil in rodents is a better reflection of plasma uridine equivalents than is uridine alone for translation to other animal models or to human dosing.

For data set [3], the system named is mortality caused by 3-nitropropionic acid (inhibitor of Complex II of the mitochondrial respiratory chain). Description: Protection against mortality caused by 3-nitropropionic acid at 65 or 70 mg/kg/day (Example 3; uridine, Na(D-BHB)). It is filed as in vivo, Female CD-1 mice. To be noted: s.c. uridine 200 mg/kg t.i.d. and/or Na(D-BHB) 985 mg/kg t.i.d.; for % Survival: end of study, 10 mice per group. From the text:
Subcutaneous administration of therapeutic agents is a suitable route of administration for emergency drugs that are intended to be used in people with traumatic brain injury, stroke or asphyxia, where the patient may not be capable of ingesting oral medications or may be in a situation where it is difficult to place an intravenous catheter. Subcutaneous drug administration is practical, but the composition must conform to volumes and osmolality values that are known to be compatible with this route of administration; excessively high osmolality can cause local edema, and volumes must be low enough for injection without problematic back pressure. Compositions comprising uridine, sodium beta-hydroxybutyrate and a combination of the two, with the osmolality restricted to a maximum of 800 milliosmoles/liter (a value known to be acceptable for subcutaneous fluid administration) were tested in a model of whole-body energy failure induced by daily intraperitoneal injections of 3-nitropropionic acid at two dose levels, 65 mg/kg/day and 70 mg/kg/day.
Survival times (median survival; the time point at which 50% of animals in a group had died) and percent survival at the end of a 13 day study were used to quantify and compare protective effects of the test agents.
Female CD-1 mice at approximately 16 weeks of age were divided into weight-matched groups of 10 mice each. All mice received daily intraperitoneal injections of 3-NP (65 mg/kg or 70 mg/kg) in a volume of 0.01 ml per gram of body weight at 5 PM.
The therapeutic treatments were administered by subcutaneous injection in a volume of 0.02 ml/gram of body weight three times per day, at 7 AM and 12 PM and 4 PM. 3-NP was administered at 5 PM on each of the consecutive days of the experiment. Body weights were recorded each day to adjust drug doses as mice lost weight during repeated treatment with 3-NP. D-BHB was administered as the water soluble sodium salt Na(D-BHB) (Toronto Research Chemicals, catalog #H833025.
1. Vehicle Control—0.9% saline t.i.d.
2. Uridine 200 mg/kg t.i.d.
3. Na(D-BHB) 985 mg/kg t.i.d.
4. Uridine 200 mg/kg+Na(D-BHB) 985 mg/kg t.i.d.

Data set [4] has the same test system. Description: Protection against mortality caused by 3-nitropropionic acid (Example 1; uridine and MgBHB). It is filed as in vivo, Female CD-1 mice. To be noted: 3-NP 60 mg/kg/day i.p., s.c. uridine 300 mg/kg b.i.d. and/or MgBHB 300 mg/kg b.i.d.; for Median Survival: 13 day study; for % Survival: end of 13 day study, 10 mice per group. An excerpt: 3-nitropropionic acid (3-NP) is an inhibitor of Complex II of the mitochondrial respiratory chain. Administration of 3-NP to experimental animals has been used as a model for mitochondrial diseases, Huntington's disease and pathological consequences of hypoxia. Daily dosing with 3-NP causes energy failure in the brain, heart and other tissues, resulting in mortality after several days. A 3-NP dosing regimen that caused 100% mortality in mice after approximately one week was selected for further evaluation of mortality, which is indicative of neuroprotective and cardioprotective effects, of compositions of the invention in a model of disorders caused by mitochondrial dysfunction. Survival times (median survival; the time point at which 50% of animals in a group had died) and percent survival at the end of the 13 day study were used to quantify protective effects of the test agents.
Female CD-1 mice at approximately 16 weeks of age were divided into weight-matched groups of 10 mice each. All mice received daily intraperitoneal injections of 3-NP (60 mg/kg) in a volume of 0.01 ml per gram of body weight. 3-NP was administered at 2 PM on each of the 13 consecutive days of the experiment. Body weights were recorded each day to adjust drug doses as mice lost weight during repeated treatment with 3-NP.
The comparative efficacy of uridine (VWR International) and the magnesium salt of racemic beta-hydroxybutyrate (magnesium β-hydroxybutyrate trihydrate; MgBHB·3H2O) (Nutra Planet) were assessed, as was the efficacy of a combination of uridine and MgBHB. All of the therapeutic treatments were administered by subcutaneous injection in a volume of 0.02 ml/gram of body weight twice per day, at 7 AM and 1 PM.
• 1. Vehicle Control—0.9% saline b.i.d. • 2. Uridine 300 mg/kg b.i.d. • 3. MgBHB 300 mg/kg b.i.d.

The conditions of data set [5]: humans, cited from earlier work.
Where [6] appears, read: s.c. Na(D-BHB) 985.1 mg/kg with uridine.

Consider `CC(O)CC(=O)[O-].[Na+]` (racemic) [Na (DL-BHB)], for which, in data set [1], the “Median Survival” value was 8 days and the “% Survival” value was 20% (2/10). Besides, in data set [1] (listed as Na(DL-BHB)), the “Median Survival” value was 7.5 days and the “% Survival” value turned out to be 20%.
For the compound `C[C@@H](O)CC(=O)[O-].[Na+]` [Na (D-BHB)], the “Maximum D-BHB concentration in plasma” value in data set [2] (setting [6]) is given as “approximately 3 millimolar”. Moreover, the “Tmax of plasma D-BHB” value in data set [2] (setting [6]) stood at 15 min. Moreover, the “Median Survival” value is 7.5 days in data set [1], 8 days in data set [1] (listed as Na(D-BHB)), 10.5 days in data set [3] (3-NP 65 mg/kg/day i.p.) and 6 days in data set [3] (3-NP 70 mg/kg/day i.p.). Also, the “% Survival” value is recorded as 10% (1/10) in data set [1], 10% in data set [1] (listed as Na(D-BHB)), 40% (4/10) in data set [3] (3-NP 65 mg/kg/day i.p.) and 0% (0/10) in data set [3] (3-NP 70 mg/kg/day i.p.).
For `O=c1ccn([C@@H]2O[C@H](CO)[C@@H](O)[C@H]2O)c(=O)[nH]1` [Uridine, uridine], the Tmax in data set [2] (female, CD-1, mouse, plasma, sc, s.c. uridine 200-400 mg/kg with or without Na(D-BHB) 985.1 mg/kg, read-out: Tmax of plasma uridine (and uridine+uracil)) was in the range of 15 to 30 min. Besides, the “Plasma uridine (and uridine+uracil) C max values” in data set [2] (s.c. uridine 200, 300, 400 mg/kg) is given as “dose-dependent”. In addition, the “Median Survival” value in data set [4] came out at 12 days; in data set [1], 12 days; in data set [3] (3-NP 65 mg/kg/day i.p.), 9 days; in data set [3] (3-NP 70 mg/kg/day i.p.), 6.5 days. Besides, the figures for the “% Survival” value in data set [4], in data set [3] (3-NP 65 mg/kg/day i.p.) and in data set [3] (3-NP 70 mg/kg/day i.p.) were 40% (4/10), 30% (3/10) and 10% (1/10), respectively. The “Local tolerability of infusion into peripheral veins” value in data set [5] (infusion into accessible peripheral veins) is on record as “caused local phlebitis”. The “Dose-limiting toxicity during intravenous infusion” value in data set [5] (intravenous infusion) is listed as “Hyperthermia was encountered as a dose-limiting toxicity”.
With “magnesium β-hydroxybutyrate trihydrate [MgBHB]”, in data set [4], the “Median Survival” value was 10 days and the “% Survival” value is given as 20% (2/10).

As usually defined, the Tmax is the time at which the peak concentration occurs.
